Data reported in PubChem BioAssay (NCI).
Several values for one entry are separate records, joined by “and”; a condition that tells them apart may be missing. Identical values can stand only once.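 Protocol summary: plate cells (96-well), add compound at 5 concentrations, incubate 48 h, interpolate endpoints linearly. Here, GI50 denotes the concentration required for 50% inhibition of growth. At the TGI there is no net growth.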

Assays:
Assay in all cases: NCI anticancer screen, dose series, 48 h
[1] = tested on: DU-145 prostate
[2] = tested on: HOP-62 NSCLC
[3] = tested on: HT29 colon
[4] = tested on: MCF7 breast
[5] = tested on: NCI-H226 lung
[6] = tested on: NCI-H460 lung
[7] = tested on: RXF 393 renal
[8] = tested on: SF-268 CNS
[9] = tested on: SR leukemia
[10] = tested on: SW-620 colon

| SMILES | GI50 [1] | TGI [1] | GI50 [2] | TGI [2] | GI50 [3] | TGI [3] | GI50 [4] | TGI [4] | GI50 [5] | TGI [5] | GI50 [6] | TGI [6] | GI50 [7] | TGI [7] | GI50 [8] [µM] | TGI [8] | GI50 [9] | TGI [9] | GI50 [10] | TGI [10] |
| --- | --- | --- | --- | --- | --- | --- | --- | --- | --- | --- | --- | --- | --- | --- | --- | --- | --- | --- | --- | --- |
| COc1ccc(/C(=C/c2ccc3ccccc3c2)c2nn[nH]n2)cc1OC | 3.53 µM | 49.2 µM | 2.33 µM | > 100 µM | 2.69 µM | 21.6 µM | 4.12 µM | > 100 µM | > 100 µM | > 100 µM | 2.81 µM | 16.3 µM | 2.48 µM | 9.07 µM | 6.55 | > 100 µM | 2.23 µM | > 100 µM | 1.36 µM | > 100 µM |
| CC(=O)N(C)c1cc(NCc2ccccc2)ccc1OCc1ccccc1 |  | 32.7 µM |  | > 100 µM |  | 43 µM |  | 35.2 µM |  | 35.9 µM |  | 33.4 µM |  | 28.6 µM |  | 30.4 µM |  | 32.8 µM |  | 56.5 µM |
| O=C(Nc1ccc(Oc2ccc(NC(=O)Nc3ccccc3Cl)cc2)cc1)Nc1ccccc1Cl | 4.53 µM | > 100 µM | 12.4 µM | 34.1 µM | > 21.4 µM | > 100 µM | 8.54 µM | > 100 µM | 15.6 µM | 49 µM | 2.49 µM | > 100 µM | 2.99 µM | 11.4 µM | 8.11 | 55.1 µM | 0.453 µM | 13.3 µM | 10.6 µM | > 100 µM |
| CN(C)c1ccc(/C=C(\C#N)c2ccccc2)cc1 | 0.617 µM and 1.51 µM and 1.48 µM | 22.3 µM and > 100 µM | 1.37 µM and 0.993 µM and 0.567 µM | 59.9 µM and > 100 µM | 0.33 µM and 0.352 µM and 0.347 µM | 10.9 µM and 71.3 µM | 0.261 µM and 0.276 µM and 0.281 µM | > 100 µM | 4.7 µM and 13.3 µM and 24 µM | > 100 µM | 0.356 µM and 0.415 µM and 0.431 µM |  | 0.394 µM and 0.662 µM and 0.817 µM | 3.09 µM and 5.77 µM |  | > 100 µM | 0.0866 µM and 0.308 µM and 0.255 µM | 19 µM and 37.6 µM | 0.28 µM and 0.447 µM and 0.444 µM | > 100 µM |
| COc1ccc(C2CC(c3ccccc3)=NN2C(=O)c2cc(OC)c(OC)c(OC)c2)cc1O (configuration not stated) | 0.479 µM |  | 0.397 µM | 5.21 µM | 2.96 µM | 8.31 µM | 0.339 µM | > 53.6 µM | 1.29 µM | 21.3 µM | 0.354 µM | 12.6 µM | 0.317 µM | 0.84 µM | 0.902 | > 39.8 µM | 0.302 µM | 5.85 µM | 0.415 µM | > 55.7 µM |
| COC(=O)[C@H](Cc1ccccc1)NNC(=O)c1csc([C@@H](C[C@H](C(C)C)N(C)C(=O)[C@@H](NC(=O)[C@H]2CCCCN2C)C2CC2)OC(C)=O)n1 |  | 25 µM and > 100 µM |  | 25 µM and > 100 µM |  | 25 µM and > 100 µM | 0.00392 µM and 0.0025 µM and 0.0244 µM | 25 µM and > 100 µM |  | 25 µM and > 100 µM |  | 25 µM and > 100 µM | 0.0025 µM | 25 µM |  | 25 µM and > 100 µM | 0.00139 µM and 0.0025 µM | 25 µM and > 100 µM |  | 25 µM and > 100 µM |
| O=C(/C=C\c1cc(Br)ccc1O)/C=C/c1cc(Br)ccc1O | 0.814 µM | 2.17 µM | 3.22 µM | 9.44 µM | 0.451 µM | 1.84 µM | 0.339 µM | 2.13 µM | 2.63 µM | 8.69 µM | 1.57 µM | 3.91 µM | 0.348 µM | 1.41 µM | 1.33 | 3.1 µM | 0.321 µM | 29.7 µM | 0.379 µM | 1.61 µM |
| [N-]=[N+]=NCCCn1c2c(c3ccc([N+](=O)[O-])cc3c1=O)C(=O)c1cc(I)ccc1-2 | 1.78 µM | 6.95 µM | 1.82 µM | 38.8 µM | 10.7 µM | > 100 µM | 0.586 µM | > 100 µM | 14.3 µM | > 100 µM | 0.449 µM | 11.6 µM | 12.5 µM | 62.8 µM | 2.58 | > 100 µM | 0.344 µM | 2.87 µM | 1.72 µM | > 100 µM |
| C=C[C@H]1CN2CCc3c([nH]c4c([C@@H]5CCCN5C)c(O)ccc34)[C@@H]2C[C@@H]1C[C@H]1c2[nH]c3ccccc3c2CCN1C |  | 2.88 µM and 3.16 µM |  | 2.87 µM and 2.74 µM and 2.45 µM |  | 3.21 µM and 2.95 µM |  | 3.66 µM and 4.3 µM | 1.27 µM | 2.96 µM and 3.13 µM and 3.97 µM |  | 3.1 µM and 2.99 µM |  | 0.913 µM and 1.52 µM |  | 3.03 µM and 3.42 µM | 0.161 µM and 0.197 µM | 520 nM [middle of 4 runs] | 2.48 µM |  |
